Legend:
serpin-3∆N [1] = experiment: Time course of inactivation of serpin-3∆N by pentapeptides; type: biochemical, Manduca sexta; settings: peptide 400 nmol, serpin-3∆N 720 ng, 37 °C; for suppression of serpin-3∆N inhibitory activity by 40 min: aliquots with 72 ng PAP3 10 min room temperature, IEARase activity
Protocol: To examine the time course of peptide interaction with serpin-3ΔN, pre-dried Ac-SVAFS-NH2 or Ac-SVAFS-COO^- (400 nmol) were incubated with 40 μL purified serpin-3ΔN (720 ng) supplemented with 40 μL BSA (80 μg) at 37 °C for 1 h. At 0, 10, 20, 40 and 60 min, 12 μL aliquots were withdrawn and immediately incubated with 72 ng of PAP3 at room temperature for 10 min, followed by measuring residual PAP3 activity with […] in 0.1 M Tris, 0.1 M NaCl, 5 mM CaCl2, pH 8.0.

[2] = test system: proPO activation system in plasma; experiment: proPO activation in plasma with added serpin-3∆N, untreated or pre-incubated with peptide; type: biochemical, Manduca sexta; settings: peptide 10 nmol pre-incubated with serpin-3∆N 0.1 µg at 37 °C 2 h, 2 µl plasma, one unit = 0.001 change of OD470 per minute, mean ± SD, n = 4 larvae
Protocol: Hemolymph was collected from day 2 fifth instar larvae and centrifuged at 12,000 rpm for 25 min at 4 °C to remove hemocytes, to prepare plasma samples containing the proPO activation system. To examine the effect of pre-incubation of peptide with serpin before exposure to plasma, Ac-SVAFS-COO^− (10 nmol in TFE) or TFE alone were dried in wells of a 96-well plate and then incubated with 4 µL serpin-3ΔN (0.1 µg) at 37 °C for 2 h, followed by incubation with 2 μl plasma at room temperature for 10 min. Then the proPO cascade was stimulated by addition of 1 μg Micrococcus luteus to activate the proPO protease cascade or filter-sterilized 0.85% NaCl as a control. These mixtures were incubated at room temperature for 10 min, and then PO activity was measured by adding 100 μl of 4 mM dopamine as substrate in 50 mM sodium phosphate, pH 6.5. PO activity was measured by detecting increase in absorbance at 470 nm. One unit of PO activity was defined as 1,000 × ∆A470/minute. Three replicates with four different larval plasma samples were examined. Paired one-way ANOVA with Tukey’s multiple comparison as post test was performed in GraphPad Prism.

serpin-3∆N [3] = experiment: Circular dichroism thermal stability of serpin-3∆N and its binary complex with peptide; type: physicochemical, Manduca sexta; settings: binary complex purified by gel permeation; 10 mM Tris, 5 mM NaCl, pH 8.0; 90 °C highest temperature tested
Protocol: To examine effects of RCL-derived peptides on serpin-3ΔN secondary structure, 600 µL serpin-3ΔN (150 μg) and 1.8 mL Ac-SVAFS-COO^− (25 μmol) were mixed and incubated at 37 °C for 2 h to allow formation of a serpin-peptide binary complex. Then the mixture was subjected to gel permeation chromatography using Superdex 200 10/300 GL ([…]) in 20 mM Tris–HCl, 150 mM NaCl, pH 8.0 to separate binary complex from free peptide. The fractions containing serpin-3ΔN, presumed to be in complex with peptide, were pooled and quantified. Ellipticity of serpin-3ΔN (0.149 mg/ml) or purified binary complex (0.129 mg/ml) in 10 mM Tris, 5 mM NaCl, pH 8.0 was measured in a 0.01 cm cuvette from 190 to 260 nm at 20 °C. The temperature was then increased in 10 °C increments, and the spectra were measured at each temperature from 20 to 90 °C. The ellipticity of the buffer was also recorded and subtracted from that of serpin-3ΔN and binary complex. The data were smoothed by the method of Savitzky-Golay with value of 15[33]. Mean residue ellipticity was calculated as (ellipticity × mean residue weight)/(10 × 0.01 cm × concentration). Three replicates were examined and results were visualized by GraphPad Prism (means ± standard deviation).

[4] = Aqueous solubility of peptides (qualitative); type: physicochemical; settings: qualitative statement
serpin-3∆N [5] = experiment: Blocking of serpin-3∆N inhibition of PAP3 by RCL-derived peptides (residual IEARase activity); type: biochemical, Manduca sexta; settings: serpin-3∆N 135 ng, 37 °C 2 h; for PAP3 activity (percentage of IEARase activity) after treatment of serpin-3∆N with peptide: peptide 25 nmol pre-dried, then PAP3 108 ng 10 min room temperature, IEAR-pNA 50 µM, mean ± SD, n = 3; for blockage of serpin-3∆N inhibition of PAP3: peptide 25 nmol, PAP3 108 ng
Protocol: Peptides (25 nmol) in TFE or TFE alone as a control were applied to wells of a 96-well plate and allowed to dry (> 1 h). Serpin-3ΔN (135 ng/7.5 µl) was then added to the wells and incubated at 37 °C for 2 h. PAP3 (108 ng) supplemented with 18 μg bovine serum albumin (BSA) in 46.5 µl 20 mM Tris, 150 mM NaCl, pH 8.0,was then added to the wells and incubated for 10 min at room temperature. The PAP3 substrate N-acetyl-Ile-Glu-Ala-Arg-p-nitroanilide (IEAR-pNA) at 50 µM in 0.1 M Tris, 0.1 M NaCl, 5 mM CaCl2, pH 8.0 was then added, and residual PAP3 activity was measured by the change of absorbance at 405 nm over 20 min at room temperature. Percentage of IEARase activity was defined as IEARase activity divided by IEARase activity of PAP3 in the absence of serpin. One-way ANOVA with Tukey’s multiple comparison as post test was performed in GraphPad Prism. Samples for analysis by reducing SDS-PAGE and immunoblotting were prepared in a similar way. Peptides or TFE were dried in 1.5 mL microcentrifuge tubes and incubated with 7.5 µl serpin-3ΔN (135 ng) at 37 °C for 2 h, followed by addition of 46.5 µl PAP3 (108 ng) supplemented with 18 µg BSA. and further incubated for 10 min at room temperature. Samples were then analyzed by reducing SDS-PAGE and immunoblotting as described above.

serpin-3∆N [6] = experiment: SDS-PAGE and immunoblot of serpin-3∆N/PAP3 inhibitory complex formation in presence of peptides; type: biochemical, Manduca sexta; settings: peptide 25 nmol, serpin-3∆N 135 ng 37 °C 2 h, PAP3 108 ng 10 min; reducing SDS-PAGE, serpin-3 antiserum
Protocol: Protein concentration was measured using Coomassie Plus Protein Assay Reagent (Thermo Scientific), with bovine serum albumin as a standard. Protein samples analyzed by SDS polyacrylamide gel electrophoresis were mixed with 2 × or 6 × SDS loading buffer (supplemented with β-mercaptoethanol) followed by heating at 95 °C for 5 min. Samples were loaded into wells of 4–12% Bis–Tris NuPAGE gels (Invitrogen) and separated by electrophoresis using MOPS buffer. The gels were stained using Instant Blue (Expedeon) or transferred to nitrocellulose in a semi-dry transfer cell (Bio-Rad). The presence of PAP3 or serpin-3ΔN on the membrane was detected using rabbit antisera to PAP3[31] or serpin-3[13], followed by goat anti-rabit IgG conjugated to alkaline phosphatase (BioRad) and colorimetric detection of immobilized alkaline phosphatase activity.
Peptides (25 nmol) in TFE or TFE alone as a control were applied to wells of a 96-well plate and allowed to dry (> 1 h). Serpin-3ΔN (135 ng/7.5 µl) was then added to the wells and incubated at 37 °C for 2 h. […] The PAP3 substrate N-acetyl-Ile-Glu-Ala-Arg-p-nitroanilide (IEAR-pNA) at 50 µM in 0.1 M Tris, 0.1 M NaCl, 5 mM CaCl2, pH 8.0 was then added, and residual PAP3 activity was measured by the change of absorbance at 405 nm over 20 min at room temperature. […] Samples were then analyzed by reducing SDS-PAGE and immunoblotting as described above.

[7] = test system: proPO activation system in plasma (endogenous serpin-3); experiment: proPO activation in plasma mixed directly with peptide; type: biochemical, Manduca sexta; settings: plasma incubated with pre-dried peptide 1 h room temperature, then M. luteus 10 min; one unit = 0.001 change of OD470 per minute; mean ± SD, n = 4 larvae
Protocol: For an experiment to test the effects of peptide mixed directly to plasma samples, pre-dried Ac-SVAFS-NH2 (25 nmol) or TFE in wells of a 96-well plate were incubated with 5 μl plasma for 1 h at room temperature, followed by addition of 95 μl of 50 mM sodium phosphate buffer, pH 6.5 supplemented with or without 2 μg of M. luteus (Sigma). After incubation for 10 min at room temperature, PO activity was measured as described above. Three replicates with four different larval plasma samples were examined. Statistical analysis was done as described above.

[8] = molecular target: Manduca sexta prophenoloxidase activating protease 3 (PAP3), activated form (Manduca sexta)
[9] = molecular target: Manduca sexta serpin-3∆N (Manduca sexta)
[10] = molecular target: Manduca sexta serpin-3∆N (Manduca sexta); remark: listed apart in the source

Ac-SVAFS-COO^−
time after which inactivation of serpin-3∆N began to occur (serpin-3∆N [1]): ≤ 10 min | suppression of serpin-3∆N inhibitory activity by 40 min (serpin-3∆N [1]): ~ 100% | PO activity in M. luteus-stimulated plasma with peptide-treated serpin-3∆N added [2]: 8.7 ± 2.8 unit | temperature up to which serpin-3∆N in complex with peptide showed little change in CD spectrum (serpin-3∆N [3]): ≥ 90 °C | aqueous solubility [4]: improved solubility | aqueous solubility ([4]; listed as five residue peptide SVAFS with only an N-terminal acetylated group): much more soluble

Ac-SVAFS-NH2 [pentapeptide from serpin-3 RCL P14-P10, acetylated and amidated]
PAP3 activity (percentage of IEARase activity) after treatment of serpin-3∆N with peptide (serpin-3∆N [5]): 100% ± 6% | blockage of serpin-3∆N inhibition of PAP3 (serpin-3∆N [5]): completely blocked | time after which inactivation of serpin-3∆N began to occur (serpin-3∆N [1]): ≤ 10 min | suppression of serpin-3∆N inhibitory activity by 40 min (serpin-3∆N [1]): ~ 100% | ~75 kDa serpin-3∆N-PAP3 inhibitory complex on immunoblot (serpin-3∆N [6]): absence | PO activity in plasma incubated with peptide, after addition of bacteria [7]: 10.7 ± 5.5 unit | aqueous solubility [4]: very low

Ac-SVAFSATQ-NH2 [octapeptide from serpin-3 RCL P14-P7]
PAP3 activity (percentage of IEARase activity) after treatment of serpin-3∆N with peptide (serpin-3∆N [5]): 59% ± 5% | blockage of serpin-3∆N inhibition of PAP3 (serpin-3∆N [5]): about 50%

Manduca sexta serpin-3∆N (domain or fragment)
residual PAP3 amidase (IEARase) activity on IEAR-pNA after 10 min with serpin-3∆N, percent of PAP3 without serpin [8]: 9%

Ac-SVAFS-OH [Ac-SVAFS-COO^−]
time course (0-60 min at 37 °C, 400 nmol peptide) of suppression of serpin-3∆N inhibition of PAP3, read as PAP3 IEARase activity [9]: 100%

Ac-SVAFS-NH2 [Ac-SVAFS-NH2]
residual PAP3 amidase (IEARase) activity after serpin-3∆N was pre-treated with 25 nmol peptide (37 °C, 2 h); the peptide blocks inhibition of PAP3 by serpin-3∆N [10]: 100% | time course (0-60 min at 37 °C, 400 nmol peptide) of suppression of serpin-3∆N inhibition of PAP3, read as PAP3 IEARase activity [9]: 100%

Ac-SVAFSATQ-NH2 [Ac-SVAFSATQ-NH2]
residual PAP3 amidase (IEARase) activity after serpin-3∆N was pre-treated with 25 nmol peptide (37 °C, 2 h); the peptide blocks inhibition of PAP3 by serpin-3∆N [10]: 59%

From PMC7359039, “Peptides based on the reactive center loop of Manduca sexta serpin-3 block its protease inhibitory function” (Scientific Reports, 2020)
